{"source": "paper PMC9095466", "about": "(Nature, 2022)", "key": {"SARS-CoV-2 P.1 (Gamma)": {"tested_on": "SARS-CoV-2 P.1 (Gamma)", "test": "microbe, parasite or virus in culture", "assay_type": "cell-based", "details": "Brazil"}, "[1]": {"tested_on": "SARS-CoV-2 B.1.617.2 (Delta)", "test": "microbe, parasite or virus in culture", "assay_type": "cell-based", "details": "India"}}, "note": "“And” between values parts separate entries of the source, which are not always exact repeats. Identical values can stand only once.", "data": [{"compound": "CS(=O)(=O)NC(CCC(N)=O)C(=O)NC(Cc1ccccc1)C(=O)NC(CCCNC(=N)N)C(=O)c1nc2ccccc2s1", "note": "(centres unmarked) [Compound N-0385, Ms-QFR-kbt]", "values": [{"measurement": "infection, dose response Figure 3c (nucleocapsid)", "setting": "SARS-CoV-2 P.1 (Gamma); log [C] (nM) 0.20412", "result": "100 and 81.7088 and 65.1564"}, {"measurement": "infection, dose response Figure 3d (dsRNA)", "setting": "SARS-CoV-2 P.1 (Gamma); log [C] (nM) 0.20412", "result": "75.4607 and 65.7035 and 100 and 82.6067"}, {"measurement": "infection, dose response Figure 3d (dsRNA)", "setting": "SARS-CoV-2 P.1 (Gamma); log [C] (nM) 3", "result": 8.633}, {"measurement": "infection, dose response Figure 3c (nucleocapsid)", "setting": "SARS-CoV-2 P.1 (Gamma); log [C] (nM) -0.49485", "result": "100 and 84.3433"}, {"measurement": "infection, dose response Figure 3d (dsRNA)", "setting": "SARS-CoV-2 P.1 (Gamma); log [C] (nM) -0.49485", "result": "100 and 92.9624 and 97.3601"}, {"measurement": "infection, dose response Figure 3c (nucleocapsid)", "setting": "SARS-CoV-2 P.1 (Gamma); log [C] (nM) -1.19382", "result": "91.5649 and 100 and 99.1769"}, {"measurement": "infection, dose response Figure 3d (dsRNA)", "setting": "SARS-CoV-2 P.1 (Gamma); log [C] (nM) -1.19382", "result": "98.3176 and 96.7175 and 100 and 97.435"}, {"measurement": "infection, dose response Figure 3c (nucleocapsid)", "setting": "[1]; log [C] (nM) 0.20412", "result": "60.9172 and 87.9076 and 85.6813 and 84.0612"}, {"measurement": "infection, dose response Figure 3d (dsRNA)", "setting": "[1]; log [C] (nM) 0.20412", "result": "68.4547 and 86.2131 and 100"}, {"measurement": "infection, dose response Figure 3d (dsRNA)", "setting": "[1]; log [C] (nM) 3", "result": "5.293 and 4.1962"}, {"measurement": "infection, dose response Figure 3c (nucleocapsid)", "setting": "[1]; log [C] (nM) -0.49485", "result": "94.4352 and 99.5627 and 82.7139"}, {"measurement": "infection, dose response Figure 3d (dsRNA)", "setting": "[1]; log [C] (nM) -0.49485", "result": "78.2794 and 100"}, {"measurement": "infection, dose response Figure 3c (nucleocapsid)", "setting": "[1]; log [C] (nM) -1.19382", "result": "98.0243 and 101.283 and 99.1734 and 90.3686"}, {"measurement": "infection, dose response Figure 3d (dsRNA)", "setting": "[1]; log [C] (nM) -1.19382", "result": "100 and 84.9713"}]}]}
